This passage reports DC50 and Dmax results from patent publication US11986532B2 (Arvinas Operations, Inc., priority 2021, dated 2024).

As a reminder, the DC50 is the concentration giving 50% degradation. One may read the Dmax as the largest share of the target that was removed.

The experiment concerns the target T1, BCL6 (Homo sapiens, UniProt P41182).
T1 construct: endogenous in cells; host or cells: T47D breast cancer epithelial cells
The experiment can be described thus: Immunofluorescence protocol for high content imaging of BCL6 (degradation) in T47D cells, 3 days compound treatment. The class given is cell-based. The note with it: T47D cells, 3 days compound treatment; for DC50: read-out: Mean DC50 (nM)* category; for Dmax: read-out: Mean Dmax (%)** category. Put shortly:
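T47D, RPMI1640/10% FBS; cpd 11-pt 3-fold, top 0.1 or 1 μM final; 3 d, 37° C. Fix 4% PFA, perm 0.1% Triton, block 3% BSA; anti-BCL6 1:300 o/n 4° C; Alexa-488 2°, CellMask-647, Hoechst. Imaged 10×, 4 fields/well.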

Counter-ions that a name gives are not always drawn.

Regarding `CNC(=O)COc1cc2cc(Nc3nc(N4CCN(CC5C6CN(c7cccc8c7C(=O)N(C7CCC(=O)NC7=O)C8=O)CC56)CC4)ncc3Cl)ccc2n(C(C)C)c1=O` (stereo not shown) [Compound 156, 2-{[6-({5-chloro-2-[4-({3-[2-(2,6-dioxopiperidin-3-yl)-1,3-dioxo-2,3-dihydro-1H-isoindol-4-yl]-3-azabicyclo[3.1.0]hexan-6-yl}methyl)piperazin-1-yl]pyrimidin-4-yl}amino)-2-oxo-1-(propan-2-yl)-1,2-dihydroquinolin-3-yl]oxy}-N-methylacetamide], the DC50 is < 10 nM.

For the compound `CNC(=O)COc1cc2cc(Nc3nc(N4CC5C(CN6CCN(c7ccc8c(c7)C(=O)N(C7CCC(=O)NC7=O)C8=O)CC6)C5C4)ncc3Cl)ccc2n(C(C)C)c1=O` (stereo not shown) [Compound 157, 2-{[6-({5-chloro-2-[6-({4-[2-(2,6-dioxopiperidin-3-yl)-1,3-dioxo-2,3-dihydro-1H-isoindol-5-yl]piperazin-1-yl}methyl)-3-azabicyclo [3.1.0]hexan-3-yl]pyrimidin-4-yl}amino)-2-oxo-1-(propan-2-yl)-1,2-dihydroquinolin-3-yl]oxy}-N-methylacetamide], the half-maximal degradation concentration (DC50) was 10 to 50 nM and the Dmax was < 50%.

For `CNC(=O)COc1cc2cc(Nc3nc(N4CC5C(CN6CCN(c7cccc8c7C(=O)N(C7CCC(=O)NC7=O)C8=O)CC6)C5C4)ncc3Cl)ccc2n(C(C)C)c1=O` (stereo not shown) [Compound 158, 2-{[6-({5-chloro-2-[6-({4-[2-(2,6-dioxopiperidin-3-yl)-1,3-dioxo-2,3-dihydro-1H-isoindol-4-yl]piperazin-1-yl}methyl)-3-azabicyclo [3.1.0]hexan-3-yl]pyrimidin-4-yl}amino)-2-oxo-1-(propan-2-yl)-1,2-dihydroquinolin-3-yl]oxy}-N-methylacetamide], the DC50 lay within 10 to 50 nM and the Dmax was < 50%.

As for `CNC(=O)COc1cc2cc(Nc3nc(N4CCC(O[C@H]5C[C@H](N6CCC(c7cc8c(cc7OC(C)C)C(=O)N(C7CCC(=O)NC7=O)C8=O)CC6)C5)CC4)ncc3Cl)ccc2n(C(C)C)c1=O` (stereo partly shown) [Compound 159, 2-[[6-[[5-chloro-2-[4-[3-[4-[2-(2,6-dioxo-3-piperidyl)-6-isopropoxy-1,3-dioxo-isoindolin-5-yl]-1-piperidyl]cyclobutoxy]-1-piperidyl]pyrimidin-4-yl]amino]-1-isopropyl-2-oxo-3-quinolyl]oxy]-N-methyl-acetamide], the DC50 is < 10 nM and the Dmax was ≥ 70%.

For `CNC(=O)COc1cc2cc(Nc3nc(N4CCC(O[C@H]5C[C@H](N6CCC(c7cc8c(cc7OC)C(=O)N(C7CCC(=O)NC7=O)C8=O)CC6)C5)CC4)ncc3Cl)ccc2n(C(C)C)c1=O` (stereo partly shown) [Compound 160, 2-({6-[(5-chloro-2-{4-[(1r,3r)-3-{4-[2-(2,6-dioxopiperidin-3-yl)-6-methoxy-1,3-dioxo-2,3-dihydro-1H-isoindol-5-yl]piperidin-1-yl}cyclobutoxy]piperidin-1-yl}pyrimidin-4-yl)amino]-2-oxo-1-(propan-2-yl)-1,2-dihydroquinolin-3-yl}oxy)-N-methylacetamide], the DC50 was < 10 nM and the Dmax was ≥ 70%.

Regarding `CNC(=O)COc1cc2c(F)c(Nc3nc(N4CCC(CN5CCC6(CC5)CN(c5ccc7c(c5)CN(C5CCC(=O)NC5=O)C7=O)C6)CC4)ncc3Cl)ccc2n(C(C)C)c1=O` (stereo not shown) [Compound 161, 2-{[6-({5-chloro-2-[4-({2-[2-(2,6-dioxopiperidin-3-yl)-1-oxo-2,3-dihydro-1H-isoindol-5-yl]-2,7-diazaspiro[3.5]nonan-7-yl}methyl)piperidin-1-yl]pyrimidin-4-yl}amino)-5-fluoro-2-oxo-1-(propan-2-yl)-1,2-dihydroquinolin-3-yl]oxy}-N-methylacetamide], the DC50 is < 10 nM and the greatest degradation seen (Dmax) is ≥ 70%.

On to `CNC(=O)COc1cc2cc(Nc3nc(N4CCC(CN5CCC6(CC5)CN(c5ccc7c(c5F)CN(C5CCC(=O)NC5=O)C7=O)C6(C)C)CC4)ncc3Cl)ccc2n(C(C)C)c1=O` (stereo not shown) [Compound 162, 2-{[6-({5-chloro-2-[4-({2-[2-(2,6-dioxopiperidin-3-yl)-4-fluoro-1-oxo-2,3-dihydro-1H-isoindol-5-yl]-1,1-dimethyl-2,7-diazaspiro[3.5]nonan-7-yl}methyl)piperidin-1-yl]pyrimidin-4-yl}amino)-2-oxo-1-(propan-2-yl)-1,2-dihydroquinolin-3-yl]oxy}-N-methylacetamide], for which the DC50 is < 10 nM and the Dmax is ≥ 70%.

For `CNC(=O)COc1cc2cc(Nc3nc(N4CCC(O[C@H]5C[C@H](N6CCC(c7ccc8c(c7Cl)CN(C7CCC(=O)NC7=O)C8=O)CC6)C5)CC4)ncc3Cl)ccc2n(C(C)C)c1=O` (stereo partly shown) [Compound 163, 2-({6-[(5-chloro-2-{4-[(1r,3r)-3-{4-[4-chloro-2-(2,6-dioxopiperidin-3-yl)-1-oxo-2,3-dihydro-1H-isoindol-5-yl]piperidin-1-yl}cyclobutoxy]piperidin-1-yl}pyrimidin-4-yl)amino]-2-oxo-1-(propan-2-yl)-1,2-dihydroquinolin-3-yl}oxy)-N-methylacetamide], the DC50 is < 10 nM and the Dmax is ≥ 70%.

For `CNC(=O)COc1cc2cc(Nc3nc(N4CCC(O[C@H]5C[C@H](N6CCN(c7ccc8c(c7F)CN(C7CCC(=O)NC7=O)C8=O)CC6)C5)CC4)ncc3Cl)ccc2n(C(C)C)c1=O` (stereo partly shown) [Compound 164, 2-[[6-[[5-chloro-2-[4-[3-[4-[2-(2,6-dioxo-3-piperidyl)-4-fluoro-1-oxo-isoindolin-5-yl]piperazin-1-yl]cyclobutoxy]-1-piperidyl]pyrimidin-4-yl]amino]-1-isopropyl-2-oxo-3-quinolyl]oxy]-N-methyl-acetamide formate], the DC50 was < 10 nM and the Dmax is ≥ 70%.

As for `CNC(=O)COc1cc2cc(Nc3nc(N4CCC(O[C@H]5C[C@H](N6CCC(c7ccc8c(c7C)C(=O)N(C7CCC(=O)NC7=O)C8=O)CC6)C5)CC4)ncc3Cl)ccc2n(C(C)C)c1=O` (stereo partly shown) [Compound 167, 2-({6-[(5-chloro-2-{4-[(1r,3r)-3-{4-[2-(2,6-dioxopiperidin-3-yl)-4-methyl-1,3-dioxo-2,3-dihydro-1H-isoindol-5-yl]piperidin-1-yl}cyclobutoxy]piperidin-1-yl}pyrimidin-4-yl)amino]-2-oxo-1-(propan-2-yl)-1,2-dihydroquinolin-3-yl}oxy)-N-methylacetamide], the DC50 is < 10 nM and the greatest degradation seen (Dmax) is ≥ 70%.

As to `CNC(=O)COc1cc2cc(Nc3nc(N4CCC(CN5CCC6(CC5)CC5(CN(c7ccc8c(c7)CN(C7CCC(=O)NC7=O)C8=O)C5)C6)CC4)ncc3Cl)ccc2n(C(C)C)c1=O` (stereo not shown) [Compound 168, 2-{[6-({5-chloro-2-[4-({2-[2-(2,6-dioxopiperidin-3-yl)-1-oxo-2,3-dihydro-1H-isoindol-5-yl]-2,9-diazadispiro[3.1.5^6.1^4]dodecan-9-yl}methyl)piperidin-1-yl]pyrimidin-4-yl}amino)-2-oxo-1-(propan-2-yl)-1,2-dihydroquinolin-3-yl]oxy}-N-methylacetamide], the DC50 is < 10 nM and the Dmax lay within 50 to 70%.

For `CNC(=O)COc1cc2c(F)c(Nc3nc(N4CCN(CC5CCC6(CC5)CN(c5cccc7c5C(=O)N(C5CCC(=O)NC5=O)C7=O)C6)CC4)ncc3Cl)ccc2n(C(C)C)c1=O` (stereo not shown) [Compound 169, 2-{[6-({5-chloro-2-[4-({2-[2-(2,6-dioxopiperidin-3-yl)-1,3-dioxo-2,3-dihydro-1H-isoindol-4-yl]-2-azaspiro[3.5]nonan-7-yl}methyl)piperazin-1-yl]pyrimidin-4-yl}amino)-5-fluoro-2-oxo-1-(propan-2-yl)-1,2-dihydroquinolin-3-yl]oxy}-N-methylacetamide], the DC50 was < 10 nM and the Dmax was ≥ 70%.

Consider `CNC(=O)COc1cc2cc(Nc3nc(N4CCC(O[C@H]5C[C@H](N6CCN(c7ccc8c(c7)CN(C7CCC(=O)NC7=O)C8=O)C(C)(C)C6)C5)CC4)ncc3Cl)ccc2n(C(C)C)c1=O` (stereo partly shown) [Compound 170, 2-({6-[(5-chloro-2-{4-[(1r,3r)-3-{4-[2-(2,6-dioxopiperidin-3-yl)-1-oxo-2,3-dihydro-1H-isoindol-5-yl]-3,3-dimethylpiperazin-1-yl}cyclobutoxy]piperidin-1-yl}pyrimidin-4-yl)amino]-2-oxo-1-(propan-2-yl)-1,2-dihydroquinolin-3-yl}oxy)-N-methylacetamide], for which the DC50 was < 10 nM and the Dmax was ≥ 70%.

Consider `CNC(=O)COc1cc2c(F)c(Nc3nc(N4CCC(CN5CCC6(CN(c7ccc8c(c7)CN(C7CCC(=O)NC7=O)C8=O)C6)C(F)(F)C5)CC4)ncc3Cl)ccc2n(C(C)C)c1=O` (stereo not shown) [Compound 171, 2-{[6-({5-chloro-2-[4-({2-[2-(2,6-dioxopiperidin-3-yl)-1-oxo-2,3-dihydro-1H-isoindol-5-yl]-5,5-difluoro-2,7-diazaspiro[3.5]nonan-7-yl}methyl)piperidin-1-yl]pyrimidin-4-yl}amino)-5-fluoro-2-oxo-1-(propan-2-yl)-1,2-dihydroquinolin-3-yl]oxy}-N-methylacetamide], for which the DC50 was < 10 nM and the Dmax was ≥ 70%.

For `CNC(=O)COc1cc2c(F)c(Nc3nc(N4CCC(O[C@H]5C[C@H](N6CCC(c7ccc8c(c7)C(=O)N(C7CCC(=O)NC7=O)C8=O)CC6)C5)CC4)ncc3Cl)ccc2n(C(C)C)c1=O` (stereo partly shown) [Compound 172, 2-({6-[(5-chloro-2-{4-[(1r,3r)-3-{4-[2-(2,6-dioxopiperidin-3-yl)-1,3-dioxo-2,3-dihydro-1H-isoindol-5-yl]piperidin-1-yl}cyclobutoxy]piperidin-1-yl}pyrimidin-4-yl)amino]-5-fluoro-2-oxo-1-(propan-2-yl)-1,2-dihydroquinolin-3-yl}oxy)-N-methylacetamide], the 50% degradation concentration (DC50) is < 10 nM and the Dmax is ≥ 70%.

On to `CNC(=O)COc1cc2c(F)c(Nc3nc(N4CCC(O[C@H]5C[C@H](N6CCC(c7ccc8c(c7F)CN(C7CCC(=O)NC7=O)C8=O)CC6)C5)CC4)ncc3Cl)ccc2n(C(C)C)c1=O` (stereo partly shown) [Compound 173], for which the DC50 is < 10 nM and the greatest degradation seen (Dmax) was ≥ 70%.
